Test results from patent US20070254055A1, “Therapeutic Avenanthramide Compounds” (TRUSTEES OF TUFTS COLLEGE, priority 2003, published 2007).

Assays:
[1] = tested on: human aortic smooth muscle cells (HSMC); assay: FBS-induced [3H] thymidine incorporation in HSMC; assay type: cell-based
Text: Synthetic Av-C was used in this experiment. […] The inhibitory effect of Avenanthramide was concentration-dependent.

eNOS mRNA = eNOS mRNA expression level by real time PCR; assay type: cell-based, human
Method: Since NO is catalyzed by endothelium nitric oxide synthases (eNOS), the role of Avenanthramide in induction of eNOS expression level by real time PCR was examined. Total mRNA was extracted using RNesy Mini Kit (QIAGEN) and quantified spectrophotometrically at 260 nm. Twenty μl of first-strand cDNA was synthesized from 1.5 μg of total RNA by using 300 ng of random hexanucleotide primers and 200u of SuperScript II (Invitrogen) at 42 C. for 1 h followed by heat inactivation of reverse transcriptase at 70 C. for 15 min. Fifty μL of PCR reaction mixture contained 5 μL cDNA, up- and down-stream primers (200 nM) and 25 μL of SYBR Green was set up into the ABI 4400 to perform the amplification for 40 cycles with denaturation at 95 C. for 30 sec, annealing at 60 C. for 1 min and extension at 72 C. for 1 min. Primers designed based on the published gene sequences were synthesized from Tufts University Core Facility. The primer sequences used for eNOS were:
Beta-actin mRNA expression level as an internal control. […] The enhancing effect is dose-dependent and the pattern is consistent with the results from NO production (FIG. 3).

pRb = pRb phosphorylation Western blot, FBS-stimulated A10 cells; assay type: cell-based, rat; details: 10% FBS, 20 h
Method: (§1) Protein from 5×10^4 cells was subjected to electrophoresis on 7.5-10% SDS-polyacrylamide gels and electro-transferred to nirocellulose membrane. Nonspecific binding was blocked by incubating with Tris-buffered saline (TBS) [137 mM NaCl, and 15 mM Tris-HCl (pH 7.6)] containing 5% non-fat milk (w/v) for 1 h at room temperature and then probed with primary antibody against p53, p21, p27, cyclin D1 and pRb overnight. After washing in TBS-Tween 20 buffer (0.075% v/v), the membranes were incubated with horseradish peroxidase-conjugated anti-IgG antibody. Proteins bound to the primary antibodies were detected with ECL detection reagents.
Based on the above findings that treatment of A10 cells with Avn arrests the cell cycle at G1 phase, the effect of Avn treatment on cell cycle regulatory molecules involved in G1 phase of the cell cycle progression were analyzed. pRB, the product of the retinoblastoma tumor suppressor gene, is a major cell cycle regulator and its hyperphosphorylation (ppRb) is necessary for G1-S phase transition. To elucidate the mechanism by which Avn inhibits the cell cycle progression, the changes in pRB phosphorylation status were measured using anti-phospho-pRb specific antibody. FIG. 11 is a Western blot showing the effects of Avn on pRB phosphorylation. Av inhibits pRb phosphorylation in A10 cells stimulated with FBS. […]

p53 = p53 protein level Western blot, A10 cells; assay type: cell-based, rat
Method: as §1
Induction of the tumor suppressor p53 has been implicated in the control of cell growth of SMC, and some antioxidants in green tea or red wine can increase the p53 protein expression level. Therefore, the effect of substantially purified Avn-C treatment on p53 protein levels was explored. A10 cells were seeded into 100 mm Petri dishes and grown in 10% FBS culture medium until 70% confluence. Cells were either left untreated or treated with different concentrations of Avn (0-120 uM), and the cells were harvested after 24 h. Whole cell lysates were prepared and subjected to Western blot analysis for p53 and β-actin levels.

p21cip1 = p21cip1 expression Western blot, A10 cells; assay type: cell-based, rat; details: 10% FBS, 20 h, highest level at 120 μM
Method: as §1
(§2) Cyclin-dependent kinase (cdk) inhibitors play important roles in cell cycle progression. P21cip1 is the main target of p53 medicated cell cycle inhibition. […] The effect of Avn on this CDK inhibitor p21cip1 protein expression was determined by Western blotting. A10 cells were synchronized by growning in FBS-free medium for 24 h. The cells were then stimulated with 10% FBS in the absence or presence of different concentrations of substantially purified Avn-C. After 20 h, total cell lysates were prepared and subjected to SDS-PAGE followed by Western blot analysis to detect p21cip and p27kip. β-Actin expression was used as loading control. […]

p27Kip1 = p27Kip1 expression Western blot, A10 cells; assay type: cell-based, rat; details: 10% FBS, 20 h
Method: as §1, §2

U937 cells = assay: Hydrogen peroxide-induced ROS production in U937 cells (DCHF); assay type: cell-based, human; details: 18 h pretreatment
Method: Pretreatment of H2O2-stimulated U937 cells with 1, 5, and 10 μM of Avn reduced the ROS production by 22, 50, and 76%, respectively, indicating the inhibitory effect is dose-dependent.

`O=C(/C=C/c1ccc(O)c(O)c1)Nc1ccc(O)cc1C(=O)O` [Avn-C, Avenanthramide C] was tested, and the “inhibition of cell proliferation (serum-induced DNA synthesis)” value ([1]; 120 μM, 10% FBS, 24 h) was “more than 50%”, the IC50 ([1]; [3H] thymidine incorporation and cell number counting, read-out: IC50, serum-induced HASMC proliferation) was ~50 µM and the “increase of eNOS mRNA expression level” value (eNOS mRNA; 80 μM, HASMC) was 3.5 fold. The “Fold Change, eNOS mRNA expression level” value (eNOS mRNA; Av. Con. 40 μM) was 1.56, the “ΔCt eNOS-β-actin” value (eNOS mRNA; Av. Con. 40 μM) was 7.0 ± 0.51 and the “Fold Change, eNOS mRNA expression level” value (eNOS mRNA; Av. Con. 80 μM) was 2.39. For the same compound, the “ΔCt eNOS-β-actin” value (eNOS mRNA; Av. Con. 80 μM) was 6.41 ± 0.48, the “expression of the total amount of pRb” value (pRb) was “did not change” and the “serum-induced pRB phosphorylation” value (pRb; different concentrations) was “dose-dependently inhibited”. For the same compound, the “increase of p53 protein level” value (p53) was “up to 3 fold”, the p53 protein levels (p53; 0-120 uM, 24 h) was “dose-dependent increase” and the p21 expression level (p21cip1) was “increased significantly”. For the same compound, the p27Kip1 protein expression (p27Kip1) was “no significant effect”, the “reduction of H2O2-induced ROS production” value (U937 cells; 1 μM) was 22% and the “reduction of H2O2-induced ROS production” value (U937 cells; 5 μM) was 50%. The “reduction of H2O2-induced ROS production” value (U937 cells; 10 μM) was 76%.
